Publication PMC5746060, “General and Modular Strategy for Designing Potent, Selective, and Pharmacologically Compliant Inhibitors of Rhomboid Proteases” (Cell Chemical Biology, 2017)
Starred links: 1 amine or outer side, 2 acyl side, 3 side chain; linkers in the order of their positions; H or OH if unused. Non-standard residues stand in square brackets, D forms with d. Residues, ends and D or L forms follow the SMILES beside them. *: point of attachment. NH(4-phenylbutyl) = c1ccc(CCCCN*)cc1; X1 = C[C@H](N[*:1])C(=O)C(=O)[*:2]; NHPhenethyl = c1ccc(CCN*)cc1

What was measured:
[1] = system: MjROM; test: activity-based probe competition assay, rhomboid panel; assay type: biochemical, Methanocaldococcus jannaschii; settings: 50 μM and 0.5 μM; outcompeted the ABP even at 500 nM
Text: (§1) Any enzyme inhibitors to be used as specific tools for cell biology or as starting points for drug development must show sufficient level of selectivity toward their intended target. This is particularly important for compounds that react with the catalytic nucleophile common to many serine hydrolases. […] To map the selectivity of peptidyl ketoamides more objectively and widely, we employed activity-based probe (ABP) competition assays that enable a more general and substrate-independent measurement of inhibitory potency, because they rely solely on the competition between a fluorescently labeled activity-based probe and the tested inhibitor ([Nguyen et al., 2015], [Serim et al., 2012]). […]
(§2) Figure 5 Selectivity of Peptidyl Ketoamides (A) Selectivity of compounds 9, 10, and 11 for nine rhomboid proteases was profiled using activity-based probe competition assay at 50 μM and 0.5 μM concentration. […] (B) Selectivity of compounds 9, 10, and 11 against human serine hydrolases was analyzed using EnPlex as described ([Bachovchin et al., 2014]).
(§3) For inhibitor selectivity profiling against rhomboid proteases ([Wolf et al., 2015]), 400 ng of a purified protein preparation of E. coli GlpG was diluted in 30 μL of reaction buffer (20 mM HEPES, pH 7.4, with 0.05% (w/v) DDM). […] Gels were scanned on a Typhoon Trio+ and analyzed using ImageJ. […]

[2] = system: TmROM; test: as above; assay type: biochemical, Thermotoga maritima; settings: 50 μM
Text: Any enzyme inhibitors to be used as specific tools for cell biology or as starting points for drug development must show sufficient level of selectivity toward their intended target. This is particularly important for compounds that react with the catalytic nucleophile common to many serine hydrolases. Only limited tests of selectivity have been conducted for the currently used rhomboid inhibitors isocoumarins, β-lactams and β-lactones, at best interrogating them against trypsin or chymotrypsin ([Pierrat et al., 2011], [Vosyka et al., 2013]). […]
as §2
as §3, with “ImageJ. The intensity of each rhomboid protease band calculated by ImageJ was normalized against its corresponding DMSO-treated counterpart (100% activity) to indicate the residual activity left after inhibition.” for “ImageJ.”

[3] = system: AaROM; test: as above; assay type: biochemical, Aquifex aeolicus; settings: 50 μM and 0.5 μM
Text: as §1, §2, §3

[4] = biological target: T1, endogenous YqgP (Bacillus subtilis, UniProt P54493); test: inhibition of endogenous YqgP in live B. subtilis (LacYTM2 substrate cleavage, western blot); assay type: cell-based, Bacillus subtilis 168; settings: for % substrate conversion: YqgP WT (BS87)
T1 construct: cleaved to about 75% conversion by the endogenous YqgP; endogenous in cells; host or cells: Bacillus subtilis 168 ydcA::neo, xkdE::substrate (BS87)
Method: The substrate MBP-FLAG-LacYTM2-Trx ([Strisovsky et al., 2009]) was expressed in wild-type E. coli NR698 with genetically permeabilized outer membrane ([Ruiz et al., 2005]) in the presence of increasing concentrations of inhibitors as described in STAR Methods. Substrate cleavage was measured in cell lysates by immunoblotting for FLAG and quantified using near-infrared fluorescence. The reported in vivo IC50 values are best-fit means with SD representative of 2–3 measurements. DMSO, dimethylsulfoxide vehicle control; KO, E. coli glpG::tet. […] The substrate AmyESP-MBP-FLAG-LacYTM2-Trx-HA was expressed in Bacillus subtilis 168 (ydcA::neo, xdkE::AmyESP-MBP-LacYTM2-Trx(erm, lin)) (BS87) in the presence of increasing concentrations of inhibitors as described in STAR Methods. Substrate cleavage was detected in cell lysates by immunoblotting for FLAG and detection by near-infrared fluorescence. […] This treatment was necessary because the specific cleavage product could not be resolved sufficiently well from the non-specific bands to be integrated separately. DMSO, dimethylsulfoxide vehicle control; YqgP KO, Bacillus subtilis 168 (ydcA::neo, yqgP::tet, xdkE::AmyESP-MBP-LacYTM2-Trx(erm, lin)) (BS88).
We then extended the range of organisms to Bacillus subtilis, a representative of Gram-positive bacteria, which have a thick cell wall and include major pathogens such as Staphylococcus, Listeria, Streptococcus, and others. Since the endogenous substrate of the B. subtilis rhomboid protease YqgP is unknown, and no robust and rescuable phenotypes have been reported for YqgP, we focused on inhibition of cleavage of a model substrate.
For measuring the inhibition of YqgP in vivo, the B. subtilis strains BS87 and its yqgP knock-out derivative BS88, generated in this work (see Constructs and Cloning section), were used as follows. The chimeric LacYTM2 substrate AmyEsp-MBP-FLAG-LacYTM2-Trx-HA (this work) was expressed under control of xylose promoter from the xdkE genomic locus. Fresh LB medium, supplemented with appropriate antibiotic, was inoculated with a few colonies of the B. subtilis strain grown overnight on selective LB agar plate and pre-culture was grown for 2 h at 37°C to OD600 = 1. Pre-culture was then diluted with fresh LB medium to the density of OD600 = 0.05. At this point, the expression of LacYTM2 was induced by adding 1% (w/v) D-(+)-xylose (Sigma), rhomboid inhibitors were added at a range of concentrations, and the cultures were further incubated for 2.5 h at 37°C (reaching OD600 ∼ 1). Steady-state conversion of the substrate was evaluated by western blotting with near-infrared fluorescence detection as described ([Ticha et al., 2017]), substracting the intensity of non-specific bands, closely co-migrating with the specific rhomboid-formed N-terminal cleavage product of the substrate.

T1 sequence (P54493 whole entry): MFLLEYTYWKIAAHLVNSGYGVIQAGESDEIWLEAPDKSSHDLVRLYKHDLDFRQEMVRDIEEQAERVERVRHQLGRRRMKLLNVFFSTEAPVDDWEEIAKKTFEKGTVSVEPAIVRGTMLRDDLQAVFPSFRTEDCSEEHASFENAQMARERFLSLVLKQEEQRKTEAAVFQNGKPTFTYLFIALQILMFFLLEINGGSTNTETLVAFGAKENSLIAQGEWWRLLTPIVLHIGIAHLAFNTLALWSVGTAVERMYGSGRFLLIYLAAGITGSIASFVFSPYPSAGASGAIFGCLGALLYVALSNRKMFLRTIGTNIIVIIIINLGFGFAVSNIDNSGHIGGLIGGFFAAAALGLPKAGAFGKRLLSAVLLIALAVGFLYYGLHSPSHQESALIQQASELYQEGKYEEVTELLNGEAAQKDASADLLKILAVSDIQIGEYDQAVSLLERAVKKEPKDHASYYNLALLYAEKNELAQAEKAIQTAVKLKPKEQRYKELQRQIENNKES

| Compound | competition with ABP labeling of MjROM [1] | inhibition of ABP labeling of TmROM [2] | competition with ABP labeling of AaROM [3] | IC50 [4] [nM] | % substrate conversion ([4]; 0.6 nM compound 11) [%] | % substrate conversion ([4]; 1.2 nM compound 11) [%] | % substrate conversion ([4]; 2.5 nM compound 11) [%] | % substrate conversion ([4]; 5 nM compound 11) [%] | % substrate conversion ([4]; 10 nM compound 11) [%] | % substrate conversion ([4]; 20 nM compound 11) [%] | % substrate conversion ([4]; 50 nM compound 11) [%] | inhibition of substrate cleavage ([4]; 50 nM in growth media) |
| --- | --- | --- | --- | --- | --- | --- | --- | --- | --- | --- | --- | --- |
| CC(=O)N[C@@H](CCCNC(=N)N)C(=O)N[C@H](C(=O)N[C@@H](CCCNC(=N)N)C(=O)N[C@@H](Cc1c[nH]cn1)C(=O)N[C@@H](C)C(=O)C(=O)NCCc1ccccc1)C(C)C [compound 9, Ac-RVRHA-CONH-phenylethyl] (Ac-RVRH[X1]-NHPhenethyl) | potently competed | only partially inhibited | none of these compounds were able to compete |  |  |  |  |  |  |  |  |  |
| CC(=O)N[C@@H](CCCNC(=N)N)C(=O)N[C@H](C(=O)N[C@@H](CCCNC(=N)N)C(=O)N[C@@H](Cc1c[nH]cn1)C(=O)N[C@@H](C)C(=O)C(=O)NCCCCc1ccccc1)C(C)C [compound 11, Ac-RVRHA-CONH-phenylbutyl] (Ac-RVRH[X1]-{NH(4-phenylbutyl)}) | potently competed | only partially inhibited | none of these compounds were able to compete | 5 to 10 | 73 | 67 | 54 | 52 | 7 | 4 | 0 | completely inhibited |
